Test results from US20090048295A1, “SUBSTITUTED 5,6,7,8-TETRAHYDROQUINOLINE DERIVATIVES, COMPOSITIONS, AND METHODS OF USE THEREOF” (priority 2007, published 2009).

Tests used:
C5a receptor [1] = target: T1, C5a receptor (Homo sapiens, UniProt P21730); experiment: Calcium Mobilization Assay (C5a-induced Ca2+ mobilization, FLIPR, differentiated U937 cells); assay type: cell-based; set-up: endogenous in cells; host or cells: U937 cells differentiated with dibutyryl cAMP; settings: […] recombinant human C5a, 20 min pre-incubation, multiple values = duplicate experiments, read-out: C5a Induced Ca Mobil. Average IC50
T1 sequence (P21730 1-350): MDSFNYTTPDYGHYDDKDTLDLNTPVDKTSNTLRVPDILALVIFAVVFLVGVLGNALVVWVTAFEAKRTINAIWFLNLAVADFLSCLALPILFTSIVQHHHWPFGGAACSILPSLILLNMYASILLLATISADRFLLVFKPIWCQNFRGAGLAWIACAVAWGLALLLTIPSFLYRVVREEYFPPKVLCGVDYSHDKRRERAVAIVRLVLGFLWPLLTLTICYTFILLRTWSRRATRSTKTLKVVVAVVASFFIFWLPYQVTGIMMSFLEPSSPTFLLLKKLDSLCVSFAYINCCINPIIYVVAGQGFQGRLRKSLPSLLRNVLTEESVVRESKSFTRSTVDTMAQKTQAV
Protocol: U937 cells (human monocytic cell line) were cultured in RPMI-1640 medium supplemented with 10% fetal bovine serum, 10 mM HEPES, 0.11 g/L pyruvate, 0.29 g/L L-glutamine, 100 IU/mL penicillin G and […] streptomycin. Dibutyryl cAMP (1 mM) was added to induce differentiation 2 or 3 days prior to loading the cells with 4.4 μM Fluo-3AM (Molecular Probes) for 30 min at 37° C. in RPMI medium containing 20 mM HEPES, 0.1% bovine serum albumin (BSA) and 5 mM probenecid. After washing, cells were dissolved at 2×10^6 cells/ml in HBSS buffer (Invitrogen 14190-094) supplemented with 10 mM HEPES, 2.5 mM probenecid and 0.1% BSA (pH=7.4), and sedimented by 1 min centrifugation (1500 rpm) in black 96-well plates (Costar) (200,000 cells/well). A 100× concentration range of test compounds was prepared in DMSO and further diluted in HBSS buffer. U937 cells were pre-incubated with compound for 20 minutes at room temperature (1% DMSO), before recombinant human C5a (Sigma) was added to the cells (1.5 nM). Changes in intracellular free Ca^2+ concentration were measured using the Fluorescent Imaging Plate Reader (FLIPR, Molecular Devices). Fluorescence was recorded every second from 10 seconds before the addition of C5a until 2 min after the addition. The maximal fluorescence obtained during this time frame was used for further calculations.

C5a receptor [2] = target: T1, C5a receptor; experiment: [125I]-C5a Radioligand Binding Assay (competition binding, differentiated U937 cells); settings: [125I]-C5a 0.05 nM, U937 cells, multiple values = duplicate experiments; for inhibition at 1 µM: read-out: [125I]-C5a Binding % Inhibition 1 μM, test compound 1 μM; for inhibition at 10 µM: read-out: [125I]-C5a Binding % Inhibition 10 μM, test compound 10 μM; for [125I]-C5a Binding % Inhibition 1 μM: test compound 1 μM; for [125I]-C5a Binding % Inhibition 10 μM: test compound 10 μM;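 on all read-outs here: cells preincubated with compound 30 min at room temperature, then 60 min at 4 °C with radioligand, bound counts read by scintillation, nonspecific binding defined with 100 nM C5a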
Protocol: Competition binding assays for C5a receptors were performed by incubation of differentiated U937 cells (200,000 cells/well), test compound (1% DMSO) and [^125I]-C5a (Bolton & Hunter labeled, Perkin Elmer, specific activity=2200 Ci/mmol, 0.05 nM final) in binding buffer consisting of 50 mM HEPES, 5 mM MgCl2, 1 mM CaCl2, 0.5% protease-free BSA, 0.02% NaN3, pH 7.4. 100× solutions of test compounds were prepared in DMSO and further diluted in binding buffer. Non-specific binding was defined in wells containing 100 nM recombinant C5a. Cells and compound were pre-incubated for 30 min at RT. After addition of the radioligand, further incubation for 60 min occurred at 4° C. Cells were harvested on GF/B filters—presoaked in 0.5% polyethylenimine, followed by washing with binding buffer containing 500 mM NaCl, pH 7.4. Filter bound radioactivity was determined by liquid scintillation counting. IC50 and Ki values were calculated using non-linear regression in Graphpad Prism. Ki is calculated using the equation of Cheng and Prusoff (Biochem. Pharmacol. 1973, 22: 3099-3108)

Row | IC50 (C5a receptor [1]) | inhibition at 1 µM (C5a receptor [2]) | inhibition at 10 µM (C5a receptor [2]) | [125I]-C5a Binding % Inhibition 1 μM (C5a receptor [2]) | [125I]-C5a Binding % Inhibition 10 μM (C5a receptor [2]) | SMILES
1 | 338 nM | 88% | 89% |  |  | CCc1cccc(CC)c1-c1cc(OC)c2c(n1)CCCC2Oc1cc(OC)ccc1C (stereo not drawn) [Compound 29]
2 | > 10000 nM | -11% | 18% |  |  | CCc1cccc(CC)c1-c1cc(OC)c2c(n1)CCCC2N1CCCC1 (stereo not drawn) [Compound 126]
3 | 687 nM | 88% | 88% |  |  | CCc1cccc(CC)c1-c1cc(OC)c2c(n1)CCCC2N(C)c1cc(C)ccc1C (stereo not drawn) [Compound 40]
4 | > 10000 nM | 59% | 76% |  |  | CCc1cccc(CC)c1-c1cc(OC)c2c(n1)CCCC2N1CCc2c(cccc2C(=O)OC)C1 (stereo not drawn) [Compound 99]
5 | > 10000 nM | 24% | 62% |  |  | CCc1cccc(CC)c1-c1cc(OC)c2c(n1)CCCC2N(C)Cc1ccco1 (stereo not drawn) [Compound 92]
6 | 6190 nM | 80% | 81% |  |  | CCc1cccc(CC)c1-c1cc(OC)c2c(n1)CCCC2N(C)c1ccc(OC)cc1C (stereo not drawn) [Compound 80]
7 | 2460 nM | 83% | 88% |  |  | CCc1cccc(CC)c1-c1cc(OC)c2c(n1)CCCC2Nc1cc(-c2ccccc2)ccc1C (stereo not drawn) [Compound 66]
8 | 543 nM | 74% | 86% |  |  | COc1ccc(C)c(NC2CCCc3nc(-c4c(C)cccc4C)cc(OC)c32)c1 (stereo not drawn) [Compound 37]
9 | > 10000 nM | 25% | 51% |  |  | CCc1cccc(CC)c1-c1cc(OC)c2c(n1)CCCC2NC1Cc2ccccc2C1 (stereo not drawn) [Compound 88]
10 | 7410 nM | 55% | 71% |  |  | CCc1cccc(CC)c1-c1cc(OC)c2c(n1)CCCC2Nc1cccc(OC)c1 (stereo not drawn) [Compound 81]
11 | 732 nM | 85% | 86% |  |  | CCc1ccccc1NC1CCCc2nc(-c3c(CC)cccc3CC)cc(OC)c21 (stereo not drawn) [Compound 41]
12 | > 10000 nM | -46% | -20% |  |  | CCc1cccc(CC)c1-c1cc(OC)c2c(n1)CCCC2N1CCc2c(cccc2C(=O)O)C1 (stereo not drawn) [Compound 129]
13 | > 10000 nM |  |  | 33% | 54% | COc1cc(-c2c(C)cccc2C)nc2c1C(N(C)c1cccc3[nH]ccc13)CCC2 (stereo not drawn) [Compound 113]
14 | > 10000 nM | 75% | 80% |  |  | COc1cc(-c2c(C)cccc2C)nc2c1C(N(C)c1cccc(Cl)c1C)CCC2 (stereo not drawn) [Compound 115]
15 | > 10000 nM | 36% | 70% |  |  | COc1cc(-c2c(C)cccc2C)nc2c1C(N(C)c1cccc3c1CCN(C)C3)CCC2 (stereo not drawn) [Compound 112]
16 | 8130 nM |  |  | 51% | 71% | CCc1cccc(CC)c1-c1cc(OC)c2c(n1)CCCC2N(C)C1CCCc2ccccc21 (stereo not drawn) [Compound 83]
17 | > 10000 nM | 77% | 87% |  |  | CCc1cccc(CC)c1-c1cc(OC)c2c(n1)CCCC2N1CCc2ccc(C#N)cc2C1 (stereo not drawn) [Compound 96]
18 | 216 nM | 88% | 91% |  |  | CCc1cccc(CC)c1-c1cc(OC)c2c(n1)CCCC2N(CC)c1cccc2c1CCCC2 (stereo not drawn) [Compound 24]

Row | IC50 (C5a receptor [1]) | inhibition at 1 µM (C5a receptor [2]) | inhibition at 10 µM (C5a receptor [2]) | [125I]-C5a Binding % Inhibition 1 μM (C5a receptor [2]) | [125I]-C5a Binding % Inhibition 10 μM (C5a receptor [2]) | SMILES
19 | 1490 nM | 85% | 91% |  |  | CCc1cccc(CC)c1-c1cc(OC)c2c(n1)CCCC2Nc1cc(Cl)ccc1C (stereo not drawn) [Compound 53]
20 | 5130 nM | 83% | 85% |  |  | CCN(c1cccc(C)c1C)C1CCCc2nc(-c3c(C)cccc3C)cc(OC)c21 (stereo not drawn) [Compound 76]
21 | 1580 nM | 74% | 87% |  |  | CCc1cccc(CC)c1-c1cc(OC)c2c(n1)CCCC2N(C)N1CCCc2ccccc21 (stereo not drawn) [Compound 54]
22 | 2350 nM | 74% | 82% |  |  | CCc1cccc(CC)c1-c1cc(OC)c2c(n1)CCCC2Nc1ccc(OC)cc1C (stereo not drawn) [Compound 63]
23 | 380 nM | 88% | 91% |  |  | CCc1cccc(CC)c1-c1cc(OC)c2c(n1)CCCC2Nc1cc(OC)ccc1Cl (stereo not drawn) [Compound 32]
24 | > 10000 nM | -26% | -9% |  |  | CCc1cccc(CC)c1-c1cc(OC)c2c(n1)CCCC2N1CCc2ccc(C(=O)O)cc2C1 (stereo not drawn) [Compound 131]
25 | > 10000 nM | 87% | 86% |  |  | COc1ccc2cccc(N(C)C3CCCc4nc(-c5c(C)cccc5C)cc(OC)c43)c2c1 (stereo not drawn) [Compound 116]
26 | 30 nM | 92% | 97% |  |  | CCc1cccc(CC)c1-c1cc(OC)c2c(n1)CCCC2Nc1ccccc1CCO (stereo not drawn) [Compound 5]
27 | > 10000 nM | 56% | 77% |  |  | CCc1cccc(CC)c1-c1cc(OC)c2c(n1)CCCC2N(C)Cc1cccs1 (stereo not drawn) [Compound 94]
28 | > 10000 nM | 49% | 64% |  |  | CCc1cccc(CC)c1-c1cc(OC)c2c(n1)CCCC2OCc1ccccc1 (stereo not drawn) [Compound 86]
29 | > 10000 nM | 59% | 75% |  |  | CCc1cccc(CC)c1-c1cc(OC)c2c(n1)CCCC2Nc1cccc2c1CCC2 (stereo not drawn) [Compound 121]
30 | > 10000 nM |  |  | 86% | 85% | COc1cccc(N(C)C2CCCc3nc(-c4c(C)cccc4C)cc(OC)c32)c1C (stereo not drawn) [Compound 117]
31 | 817 nM | 80% | 83% |  |  | CCc1cccc(CC)c1-c1cc(OC)c2c(n1)CCC[C@H]2N(C)[C@H]1CCCc2ccccc21 [Compound 43]
32 | > 10000 nM | 82% | 85% |  |  | COc1cc(-c2c(C)cccc2C)nc2c1C(Oc1cc(C(C)C)ccc1C)CCC2 (stereo not drawn) [Compound 111]
33 | 1380 nM | 83% | 85% |  |  | CCc1cccc(CC)c1-c1cc(OC)c2c(n1)CCCC2Nc1cc(F)ccc1C (stereo not drawn) [Compound 50]
34 | > 10000 nM | 77% | 82% |  |  | COc1cc(-c2c(C)cccc2C)nc2c1C(N(C)c1cc(C)ccc1C(C)C)CCC2 (stereo not drawn) [Compound 110]
35 | 2560 nM | 82% | 86% |  |  | CCc1cccc(CC)c1-c1cc(OC)c2c(n1)CCCC2N(C)c1cc(Cl)ccc1C (stereo not drawn) [Compound 67]
36 | 560 nM | 84% | 87% |  |  | CCc1cccc(CC)c1-c1cc(OC)c2c(n1)CCCC2N(C)c1cc(OC)ccc1C (stereo not drawn) [Compound 38]

Row | SMILES | IC50 (C5a receptor [1]) | inhibition at 1 µM (C5a receptor [2]) | inhibition at 10 µM (C5a receptor [2]) | [125I]-C5a Binding % Inhibition 1 μM (C5a receptor [2]) | [125I]-C5a Binding % Inhibition 10 μM (C5a receptor [2])
37 | CCc1cccc(CC)c1-c1cc(OC)c2c(n1)CCCC2N(C(C)=O)c1cccc2ccccc12 (stereo not drawn) [Compound 79] | 6170 nM | 49% | 78% |  | 
38 | CCc1cccc(CC)c1-c1cc(OCc2ccccc2)c2c(n1)CCCC2N(CC)c1cccc2ccccc12 (stereo not drawn) [Compound 27] | 273 nM | 90% | 94% |  | 
39 | CCOc1cc(-c2c(CC)cccc2CC)nc2c1C(N(CC)c1cccc3ccccc13)CCC2 (racemic) [Compound 8, (±)-[2-(2,6-Diethyl-Phenyl)-4-ethoxy-5,6,7,8-tetrahydro-quinolin-5-yl]-ethyl-naphthlen-1-yl-amine] | 67 nM | 94% | 96% |  | 
40 | CCN(c1cccc2ccccc12)C1CCCc2nc(-c3c(C)cc(OC)cc3C)cc(OC)c21 (stereo not drawn) [Compound 21] | 169 nM | 91% | 93% |  | 
41 | CCN(c1cccc2ccccc12)C1CCCc2nc(-c3ccccc3C)cc(OC)c21 (stereo not drawn) [Compound 30] | 354 nM | 68% | 82% |  | 
42 | CCc1cccc(CC)c1-c1cc(SC)c2c(n1)CCCC2N(CC)c1cccc2ccccc12 (stereo not drawn) [Compound 10] | 82 nM | 92% | 94% |  | 
